Bounds are passed on as bounds.

The subject of the assay is NCI-H295R. Description: IC50 (antiproliferative, ATP content). The following applies: 48 h. Put shortly:
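In 1536-well plates, 1500 adrenocortical carcinoma cells per well were grown overnight in serum-free, ITS-supplemented DMEM before compounds were pin-transferred at 8 final concentrations (0.6 nM to 46 µM). After 48 h at 37 °C and 5% CO2, CellTiter-Glo luminescence was read following 20 min at room temperature and normalised to vehicle and positive-control wells. IC50 values came from logistic curve fits, with compounds lacking any concentration response listed as above the top dose.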
A word on the IC50: it is the concentration at which inhibition is half-maximal. A lower IC50 goes with greater potency. `CCCNC(C)(C)COC(=O)c1ccccc1.Cl` registered an IC50 of over 46 µM.
Take `C=CCN1C(=O)C(CC(C)C)NC1=S` (stereo unspecified): the IC50 is over 46 µM.
For `Cc1cnc(C(=O)NCCc2ccc(S(=O)(=O)NC(=O)NC3CCCCC3)cc2)cn1` the value was over 46 µM; for `O=C(CCCN1CC=C(n2c(=O)[nH]c3ccccc32)CC1)c1ccc(F)cc1`, over 46 µM; for `CCCC(=O)[O-].[Na+]`, over 46 µM.
For `CC(=O)[C@H]1CC[C@H]2[C@@H]3CC[C@H]4C[C@H](O)CC[C@]4(C)[C@H]3C(=O)C[C@]12C` the value was over 46 µM; for `OC(CN1CCC(Cc2ccc(F)cc2)CC1)c1ccc(Cl)cc1` (stereo unspecified), over 46 µM.
The result for `CCC[C@@H]1C[C@@H](C(=O)N[C@@H]([C@H]2O[C@H](SC)[C@H](O)[C@@H](O)[C@H]2O)[C@H](C)Cl)N(C)C1.Cl` reads over 46 µM; that for `CCCCCCCCCCCC(=O)OCC(O)CO` (stereo unspecified), over 46 µM.
Regarding `Cc1ccc(C(C)C)cc2c(C)ccc1-2`, the IC50 is over 46 µM.
Regarding `Cc1cccc(Nc2ccccc2C(=O)O)c1C`, the IC50 is over 46 µM.
For `C[C@H](NCCc1ccc(O)cc1)[C@H](O)c1ccc(O)cc1.Cl` the value was over 46 µM; for `[S]=[Sb](=[S])[S][Sb](=[S])=[S]`, over 46 µM.
For the molecule `Nc1ccc(C(=O)O)cc1`, the IC50 was over 46 µM.
The result for `CN1CCN(CCCN2c3ccccc3Sc3ccc(S(=O)(=O)N(C)C)cc32)CC1.CS(=O)(=O)O.CS(=O)(=O)O` reads over 46 µM; that for `CCC1(c2ccccc2)CCC(=O)NC1=O` (stereo unspecified), over 46 µM; that for `OC[C@@H](O)[C@H](O)[C@H](O)[C@@H](O)CO`, over 46 µM.
For `[C@@]2\1(\C(=C/C(/C=C/1)=O)[C@H](C[C@@H]4[C@@H]2[C@H](C[C@@]3([C@](C(=O)CO)(O)CC[C@H]34)C)O)C)C` the value was over 46 µM; for `CC(C)NCC(O)COc1ccc(COCCOC(C)C)cc1.CC(C)NCC(O)COc1ccc(COCCOC(C)C)cc1.O=C(O)/C=C/C(=O)O` (stereo unspecified), over 46 µM; for `N#Cc1ccc(C(c2ccc(C#N)cc2)n2cncn2)cc1`, over 46 µM.
The result for `COc1ccc(OC)c(C(O)CNC(=O)CN)c1.Cl` (stereo unspecified) reads over 46 µM; that for `NS(=O)(=O)c2cc1c(/N=C\NS1(=O)=O)cc2Cl`, over 46 µM.
Turning to `CC(=O)Oc1c(C)cc(OCC(O)CNC(C)C)c(C)c1C` (stereo unspecified), the IC50 was over 46 µM.
For `CC(C)NC(=N)NC(=N)Nc1ccc(Cl)cc1.Cl` the value was over 46 µM; for `O=C([C@H](C)CS)N(CCC1)[C@@H]1[C@@](O)=O`, over 46 µM.
Turning to `NNc1nnc(NN)c2ccccc12`, the half-inhibitory concentration (IC50) is over 46 µM.
For `CC(C)NCC(O)c1ccc2ccccc2c1` (stereo unspecified) the value was over 46 µM.
The result for `CN1CC(=O)N2[C@H](c3ccc4c(c3)OCO4)c3[nH]c4ccccc4c3C[C@@H]2C1=O` reads over 46 µM; that for `CCN(CC)CCOC(=O)C(Cc1cccc2ccccc12)CC1CCCO1.O=C(O)C(=O)O` (stereo unspecified), over 46 µM; that for `CCCCC(CC)COC(=O)c1ccc(N(C)C)cc1` (stereo unspecified), over 46 µM.
For `[O-][N+](=Nc1ccccc1)c1ccccc1` the value was over 46 µM; for `COc1ccccc1N1CCNCC1.Cl`, over 46 µM; for `Nc1ccncc1N`, over 46 µM.
Take `CCCCCCCCCCCCCCC[C@H](O)[C@H](N)CO`: the IC50 was over 46 µM.
For `Nc1nc(O)c(-c2ccccc2)o1` the value was over 46 µM.
For `CCCCCc1ccc(C)cc1O` the value was over 46 µM.
For `CC(=O)N[C@@H](CS)C(=O)O` the value was over 46 µM; for `O=C1OC(OC(=O)c2cccnc2Nc2cccc(C(F)(F)F)c2)c2ccccc21` (stereo unspecified), over 46 µM.
`S=P(N1CC1)(N1CC1)N1CC1` came in with an IC50 of over 46 µM.
`O=C(O)c1cc(=O)c2ccccc2o1` gave an IC50 of over 46 µM.
`CCC(Cc1c(I)cc(I)c(O)c1I)C(=O)O` (stereo unspecified) had an IC50 of over 46 µM.
In turn, `O=P([O-])([O-])OP(=O)([O-])[O-].[Na+].[Na+].[Na+].[Na+]` had an IC50 of over 46 µM.
Molecule `Cc1cccc(C(=O)O)c1O` yielded a half-maximal inhibitory concentration (IC50) of over 46 µM.
Molecule `N/C1=N/C(=O)N(/C=N1)[C@@H]2O[C@H](CO)[C@@H](O)[C@H]2O` yielded a 50% inhibitory concentration (IC50) of over 46 µM.
The result for `NCCc1ccc(O)cc1` reads over 46 µM; that for `O=C(O)CCC(=O)O`, over 46 µM; that for `CCOC(=O)c1ccc(N)cc1`, over 46 µM.
The result for `CCN(CC)CCNC(=O)c1cc(S(C)(=O)=O)ccc1OC.Cl` reads over 46 µM; that for `O=C1CCC(N2C(=O)c3ccccc3C2=O)C(=O)N1` (stereo unspecified), over 46 µM.
The result for `CCOP(=S)(OCC)Oc1ccc2c(C)c(Cl)c(=O)oc2c1` reads over 46 µM; that for `CCn1cc(C(=O)O)c(=O)c2ccc(C)nc21`, over 46 µM.
`CC(=O)OCC1=C(C(=O)O)N2C(=O)[C@@H](NC(=O)Cc3cccs3)[C@H]2SC1` had an IC50 of over 46 µM.
As to `CCN(CC)C(=O)N[C@H]1C[C@@H]2c3cccc4[nH]cc(c34)C[C@H]2N(C)C1`, the IC50 was over 46 µM.
Molecule `CCCCCCCCCCCCCC(=O)OCC(COP(=O)([O-])OCC[N+](C)(C)C)OC(=O)CCCCCCCCCCCCC` (stereo unspecified) returned an IC50 of over 46 µM.
`C[C@@H]1C[C@H]2[C@@H]3C[C@H](F)C4=CC(=O)C=C[C@]4(C)[C@@]3(Cl)[C@@H](O)C[C@]2(C)[C@H]1C(=O)COC(=O)C(C)(C)C` had an IC50 of over 46 µM.
The molecule `CC(C(=O)O)c1ccc(-c2ccccc2)c(F)c1` (stereo unspecified) returned an IC50 of over 46 µM.
For `CO/N=C(\C(=O)N[C@@H]1C(=O)N2C(C(=O)[O-])=CCS[C@H]12)c1csc(N)n1.[Na+]` the value was over 46 µM.
As to `ClC4=CC3=[C@@](C=C4O)[C@H]2C1=CC=CC=C1CC[C@@H]2N(C)CC3`, the IC50 was over 46 µM.
The result for `IC(I)I` reads over 46 µM; that for `Cl.NCc1ccc(S(N)(=O)=O)cc1`, over 46 µM.
The molecule `Cc1ncc(C[n+]2csc(CCO)c2C)c(N)n1.Cl.[Cl-]` displayed an IC50 of over 46 µM.
For `O=C(N[C@H]([C@H]1O[C@@H]([C@@H]4O)OC(C(O)=O)[C@H]([C@@H]4O)O[C@@H]([C@@H]3NC(C)=O)O[C@@H]([C@H](C3O[C@H]([C@@H]2O)O[C@H]([C@](O)=O)C([C@@H]2O)O)O)CO)C(O[C@@H]([C@H]1O)CO)O)C` (stereo partly specified) the value was over 46 µM; for `[Na+].[O-]Cl`, over 46 µM.
The result for `Nc1nc(=O)[nH]cc1F` reads over 46 µM; that for `CC12CC3CC(C)(C1)CC(N)(C3)C2`, over 46 µM; that for `Cn1c(=O)c2c(ncn2CCOC(=O)C(C)(C)Oc2ccc(Cl)cc2)n(C)c1=O`, over 46 µM.
For `NC(=O)c1ncn([C@@H]2O[C@H](CO)[C@@H](O)[C@H]2O)c1N`, the IC50 is over 46 µM.
Molecule `Cc1ccnc(NS(=O)(=O)c2ccc(N)cc2)n1` had an IC50 of over 46 µM.
For `O[C@H]1[C@@H]([C@H](O)CO)O[C@H]2[C@@H]1O[C@@H]([C@@](Cl)(Cl)Cl)O2` the value was over 46 µM.
For `O=[N+]([O-])c1ccc(F)c([N+](=O)[O-])c1` the value was over 46 µM.
For the molecule `C#CCOC(C(=O)OCCN(C)C)(c1ccccc1)c1ccccc1.Cl`, the IC50 was over 46 µM.
For `Cc1cc(=O)n(-c2ccccc2)n1C` the value was over 46 µM; for `Cc1ccccn1`, over 46 µM.
For `CC(C)NC(C)Cc1ccc(I)cc1.Cl` (stereo unspecified) the value was over 46 µM; for `CN(C)CCN(Cc1ccccc1)c1ccccn1.O=C(O)CC(O)(CC(=O)O)C(=O)O`, over 46 µM.
Take `O=C(O)CN(CCOCCOCCN(CC(=O)O)CC(=O)O)CC(=O)O`: the IC50 was over 46 µM.
`O[C@@H]3C\C4=C\C[C@@H]1[C@H](CC[C@]2(C)[C@@H](O)CC[C@@H]12)[C@@]4(C)CC3` registered an IC50 of over 46 µM.
`C[C@]12CC[C@H]3[C@@H](CCC4=C(Cl)C(=O)CC[C@@]43C)[C@@H]1CC[C@@H]2O` returned a concentration for half-maximal inhibition (IC50) of over 46 µM.
For `CC1(C)Oc2ccc(C#N)cc2[C@@H](N2CCCC2=O)[C@@H]1O` the value was over 46 µM; for `O=[C@@](NC2=O)[C@](N2)3C1=C(OCC3)C=CC(F)=C1`, over 46 µM; for `CC[N+](CC)(CC(=O)Nc1c(C)cccc1C)Cc1ccccc1.O=C([O-])c1ccccc1`, over 46 µM.
As to `Nc1nccs1`, the IC50 is over 46 µM.
For `CC=Cc1ccc(O)c(OC)c1` the value was over 46 µM.
The result for `CC(C)COC(=O)c1ccc(N)cc1` reads over 46 µM; that for `CCc1ccc(CCOc2ccc(CC3SC(=O)NC3=O)cc2)nc1.Cl` (stereo unspecified), over 46 µM; that for `Cc1ccc(O)c([C@H](CCN(C(C)C)C(C)C)c2ccccc2)c1`, over 46 µM.
`COc1cc(O)cc(O)c1` came in with an IC50 of over 46 µM.
For `CC(=O)O[C@@H]3C\C4=C\C[C@@H]2[C@H](CC[C@]1(C)C(=O)CC[C@H]12)[C@@]4(C)CC3` the value was over 46 µM; for `COC(=O)CCC(=O)CN.Cl`, over 46 µM; for `CCCN(CCC)C(=O)C(CCC(=O)O)NC(=O)c1ccccc1` (stereo unspecified), over 46 µM.
For `O=[C@](N[C@@H](C)CO)[C@@H](C4)C=C(C2=C1C(C3)=CNC1=CC=C2)[C@]3([H])N4C` the value was over 46 µM; for `O=C(O)CCC(=O)C(=O)O`, over 46 µM.
With `CCN(CC)CCOC(=O)C(C)(c1ccccc1)c1ccccc1`, the IC50 was over 46 µM.
`O=C(C=Cc1ccccc1)NCCO` displayed an IC50 of over 46 µM.
For `Nc1cc(-c2ccncc2)c[nH]c1=O` the value was over 46 µM.
On to `Cc1ccc(=O)n(-c2ccccc2)c1`, for which the IC50 was over 46 µM.

For the origin of these results see the supplement of paper PMC3493320.
